The text below walks through data of ChEMBL document CHEMBL3046745, “Sensitivity of Cucumber Powdery Mildew Fungus (Sphaerotheca fuliginea) to Several Fungicides” (J Pestic Sci, 1991).

In test [1] the test system is Podosphaera fuliginea. As to the kind of experiment: Antifungal activity against Podosphaera fuliginea isolate N-1 in cucumber plants by leaf disc method. It counts as functional, organism-based.
The test system of test [2] is Podosphaera fuliginea. Briefly: Antifungal activity against Podosphaera fuliginea isolate S-2 in cucumber plants assessed as percentage of infected leaf area at 125 ppm treated 3 times at 7-day interval by foliar spray test. It counts as functional.
Test [3] relates to Podosphaera fuliginea. Briefly: Antifungal activity against Podosphaera fuliginea isolate N-1 in cucumber plants assessed as percentage of infected leaf area at 125 ppm treated 3 times at 7-day interval by foliar spray test. Type of test: functional.
Test [4] has as its system Podosphaera fuliginea. As to the kind of experiment: Antifungal activity against Podosphaera fuliginea isolate N-2 in cucumber plants assessed as percentage of infected leaf area at 125 ppm treated 3 times at 7-day interval by foliar spray test. It counts as functional.
The test system of test [5] is Podosphaera fuliginea. Briefly: Resistant ratio, ratio of EC50 for Podosphaera fuliginea isolate N-1 to EC50 for Podosphaera fuliginea isolate K-7. It counts as functional.
In test [6] the test system is Podosphaera fuliginea. Briefly: Resistant ratio, ratio of EC50 for Podosphaera fuliginea isolate S-2 to EC50 for Podosphaera fuliginea isolate K-7. Type of test: functional.
In test [7] the test system is Podosphaera fuliginea. As to the kind of experiment: Resistant ratio, ratio of EC50 for Podosphaera fuliginea isolate N-2 to EC50 for Podosphaera fuliginea isolate K-7. It counts as functional.
Test [8] relates to Podosphaera fuliginea. Briefly: Antifungal activity against Podosphaera fuliginea isolate K-7 in cucumber plants by leaf disc method. Type of test: functional, organism-based.
Test [9] has as its system Podosphaera fuliginea. Briefly: Antifungal activity against Podosphaera fuliginea isolate S-2 in cucumber plants by leaf disc method. It counts as functional, organism-based.
Test [10] relates to Podosphaera fuliginea. Briefly: Antifungal activity against Podosphaera fuliginea isolate N-2 in cucumber plants by leaf disc method. Type of test: functional, organism-based.
Test [11] deals with Podosphaera fuliginea. As to the kind of experiment: Antifungal activity against Podosphaera fuliginea isolate K-7 in cucumber plants assessed as percentage of infected leaf area at 125 ppm treated 3 times at 7-day interval by foliar spray test. It counts as functional.
Test [12] deals with Podosphaera fuliginea. As to the kind of experiment: Antifungal activity against Podosphaera fuliginea isolate S-2 in cucumber plants assessed as percentage of infected leaf area at 62.5 ppm treated 3 times at 7-day interval by foliar spray test. Type of test: functional.
Test [13] has as its system Podosphaera fuliginea. Briefly: Antifungal activity against Podosphaera fuliginea isolate K-7 in cucumber plants assessed as percentage of infected leaf area at 62.5 ppm treated 3 times at 7-day interval by foliar spray test. Type of test: functional.
Test [14] relates to Podosphaera fuliginea. As to the kind of experiment: Antifungal activity against Podosphaera fuliginea isolate N-1 in cucumber plants assessed as percentage of infected leaf area at 62.5 ppm treated 3 times at 7-day interval by foliar spray test. It counts as functional.
For test [15], the system named is Podosphaera fuliginea. Briefly: Antifungal activity against Podosphaera fuliginea isolate N-2 in cucumber plants assessed as percentage of infected leaf area at 62.5 ppm treated 3 times at 7-day interval by foliar spray test. It counts as functional.
Test [16] concerns Podosphaera fuliginea. As to the kind of experiment: Antifungal activity against Podosphaera fuliginea isolate N-2 in cucumber plants assessed as percentage of infected leaf area at 466.7 ppm treated 3 times at 7-day interval by foliar spray test. It counts as functional.
The subject of test [17] is Podosphaera fuliginea. As to the kind of experiment: Antifungal activity against Podosphaera fuliginea isolate S-2 in cucumber plants assessed as percentage of infected leaf area at 466.7 ppm treated 3 times at 7-day interval by foliar spray test. Type of test: functional.
Test [18] relates to Podosphaera fuliginea. As to the kind of experiment: Antifungal activity against Podosphaera fuliginea isolate K-7 in cucumber plants assessed as percentage of infected leaf area at 466.7 ppm treated 3 times at 7-day interval by foliar spray test. Type of test: functional.
The test system of test [19] is Podosphaera fuliginea. Briefly: Antifungal activity against Podosphaera fuliginea isolate N-1 in cucumber plants assessed as percentage of infected leaf area at 466.7 ppm treated 3 times at 7-day interval by foliar spray test. Type of test: functional.
In test [20] the test system is Podosphaera fuliginea. As to the kind of experiment: Antifungal activity against Podosphaera fuliginea isolate S-2 in cucumber plants assessed as percentage of infected leaf area at 25 ppm treated 3 times at 7-day interval by foliar spray test. Type of test: functional.
In test [21] the test system is Podosphaera fuliginea. As to the kind of experiment: Antifungal activity against Podosphaera fuliginea isolate N-2 in cucumber plants assessed as percentage of infected leaf area at 25 ppm treated 3 times at 7-day interval by foliar spray test. It counts as functional.
Test [22] concerns Podosphaera fuliginea. Briefly: Antifungal activity against Podosphaera fuliginea isolate N-1 in cucumber plants assessed as percentage of infected leaf area at 25 ppm treated 3 times at 7-day interval by foliar spray test. Type of test: functional.
In test [23] the test system is Podosphaera fuliginea. As to the kind of experiment: Antifungal activity against Podosphaera fuliginea isolate K-7 in cucumber plants assessed as percentage of infected leaf area at 25 ppm treated 3 times at 7-day interval by foliar spray test. Type of test: functional.

Regarding `Cc1ccc2nc3sc(=O)sc3nc2c1` [CHINOMETHIONAT], the EC50 worked out at 4.83 ppm with Podosphaera fuliginea [1], 1.27 ppm in the test with Podosphaera fuliginea [8], 4.95 ppm in the test with Podosphaera fuliginea [9] and 3.35 ppm in the test on Podosphaera fuliginea [10]. The Activity with Podosphaera fuliginea [2] is given as 91.3%; in the test on Podosphaera fuliginea [3], 91.1%; in the test with Podosphaera fuliginea [4] it was 94.9%; in the test on Podosphaera fuliginea [11] it was 96.5%. In addition, the “Ratio EC50” value in the test on Podosphaera fuliginea [5] came out at 3.8; in the test on Podosphaera fuliginea [6] it was 3.9; with Podosphaera fuliginea [7], 2.6.

`CCCCc1c(C)nc(N(C)C)nc1O` [DIMETHIRIMOL]: the EC50 with Podosphaera fuliginea [1] came out at 6.6 ppm; in the test with Podosphaera fuliginea [8], 2.95 ×10⁻² ppm; in the test with Podosphaera fuliginea [9], 4.64 ppm; in the test on Podosphaera fuliginea [10], 6.45 ppm. Besides, the Activity in the test on Podosphaera fuliginea [12] was 55.2%; with Podosphaera fuliginea [13], 98.8%; in the test on Podosphaera fuliginea [14], 49.4%; in the test with Podosphaera fuliginea [15], 47.4%. In addition, the “Ratio EC50” value with Podosphaera fuliginea [5] came to 223.7; in the test with Podosphaera fuliginea [6], 157.3; in the test on Podosphaera fuliginea [7], 218.6.

Regarding `COC(=O)NC(=S)Nc1ccccc1NC(=S)NC(=O)OC` [THIOPHANATE METHYL], the EC50 in the test with Podosphaera fuliginea [1] was found to be 680 ppm; in the test on Podosphaera fuliginea [8], 2.71 ×10⁻² ppm; with Podosphaera fuliginea [9] it was 479 ppm; in the test with Podosphaera fuliginea [10], 719 ppm. Also, the Activity was 11.9% in the test on Podosphaera fuliginea [16], 0% with Podosphaera fuliginea [17], 97.8% in the test with Podosphaera fuliginea [18] and 5.1% in the test with Podosphaera fuliginea [19]. Besides, the “Ratio EC50” value with Podosphaera fuliginea [5] is reported as 25092.3; in the test with Podosphaera fuliginea [6], 17675.3; in the test with Podosphaera fuliginea [7], 26531.4.

Consider `CC(C)(C)C(=O)C(Oc1ccc(Cl)cc1)n1cncn1` (centres undefined) [TRIADIMEFON], for which the EC50 in the test with Podosphaera fuliginea [1] is reported as 9.72 ×10⁻¹ ppm; with Podosphaera fuliginea [8] it was 1.03 ×10⁻² ppm; in the test on Podosphaera fuliginea [9], 1.82 ×10⁻² ppm; in the test with Podosphaera fuliginea [10], 5.7 ppm. Further, the Activity was 100% in the test with Podosphaera fuliginea [20], 45.8% with Podosphaera fuliginea [21], 76% in the test with Podosphaera fuliginea [22] and 98.8% in the test on Podosphaera fuliginea [23]. Also, the results for the “Ratio EC50” value in the test with Podosphaera fuliginea [5], in the test on Podosphaera fuliginea [6] and with Podosphaera fuliginea [7] were 94.4, 1.8 and 553.4, respectively.
